Common to all, as to assay type: cell-based, murine
Assay [1] deals with nitric oxide (NO) production, RAW264.7. The assay is described as follows: Inhibition of nitric oxide production in LPS-stimulated RAW264.7 macrophages (Griess reaction). As to conditions: single compounds, RAW264.7, 1 μg/ml LPS, 24 hours. On the procedure:
(§1) Pure compounds were assayed in vitro in cellular systems. The inhibition of the synthesis of pro-inflammatory prostaglandins (PG) and of nitric oxide by the extracts or compounds was measured. PGE2 plays a critical role in the inflammation process, while nitric oxide (NO) is a hallmark of inflammation in various chronic inflammatory diseases including various forms of arthritis, gastrointestinal diseases and metabolic syndrome X.
(§2) The effects of extracts or compounds on the inflammatory response were tested in cellular assays using a murine macrophage indicator cell line, RAW264.7. The cells were purchased from ATCC (Manassas, Va., USA) and cultured in DMEM containing streptomycin/penicillin, non-essential amino acids and 10% fetal calf serum (FCS). In order to test a large range of concentration of compounds, cells (˜50′000/well) were seeded into flat-bottomed microtiter plates and cultured for one day. Cells were then starved in complete medium containing 0.25% FCS (D-025). After overnight culture, medium was removed and replaced by 100 μL of D-025 containing the test compounds at twice the final concentration. Subsequently, 100 μL of D-025 containing 2 μg/ml LPS was added (i.e. final LPS concentration of 1 μg/ml) and the cells cultured for 24 hours.
(§3) Compounds were usually tested in a concentration range from 0.2 to 50 μM in two-fold dilution steps. Extracts were tested in a range from 0.2-50 mg/L. All treatments were done in duplicates and several experimental series were done for each treatment. Concentrations of nitrite, which was rapidly formed from nitric oxide released by cells, were determined by the Griess reaction using sodium nitrite as standard. Briefly, 50 μl of supernatant was mixed with Griess reagent 1 (25 μL) and Griess reagent 2 (25 μL), centrifuged and the optical density at 540 nm determined. PGE2 secreted into the cell culture medium was determined by EIA obtained from Cayman Chemicals (Ann Harbor, Wis., USA) and used according to the manufacturer's instructions. All determinations were done in duplicates and at various dilutions of the culture supernatant. IC50 values were calculated using a […] least-square fitting equation [y=A+((B−A)/(1+((C−x)^D))] for best-fit curves (Excel fit software program).

Assay [2] relates to PGE2 production, RAW264.7. Put plainly: Inhibition of PGE2 production in LPS-stimulated RAW264.7 macrophages (EIA). As to conditions: single compounds, RAW264.7, 1 μg/ml LPS, 24 hours. On the procedure: as §1, §2, §3
The test system of assay [3] is inducible nitric oxide synthase (iNOS) mRNA. Put plainly: Expression of inflammatory genes in stimulated RAW 264.7 cells, quantitative RT-PCR: iNOS. Particulars: RAW 264.7, 4 hours. On the procedure: (§4) The effect of the compounds has also been evaluated on the level of the expression of genes that are involved in the inflammatory response. These comprise genes of the prostaglandin synthesis pathway, cytokines and chemokines or inducible nitric oxide synthase (iNOS). RAW 264.7 cells were stimulated in the presence of different concentrations of substances. After 4 hours, RNA was extracted and the expression of genes determined by quantitative RT-PCR as described (Richard, N., Porath, D., Radspieler, A. and Schwager, J. Effects of resveratrol, piceatannol, tri-acetoxystilbene, and genistein on the inflammatory response of human peripheral blood leukocytes. Mol Nutr Food Res 2005. 49: 431-442). […] Collectively, the results reveal significant effects of the compounds on the expression of distinct genes involved in the inflammatory response.

The test system of assay [4] is interleukin-10 (IL-10) mRNA. The assay is described as follows: Expression of inflammatory genes in stimulated RAW 264.7 cells, quantitative RT-PCR: IL-10. As to conditions: RAW 264.7, 4 hours. The procedure:
as §4

Assay [5] relates to matrix metalloproteinase 9 (MMP-9) mRNA. Put plainly: Expression of inflammatory genes in stimulated RAW 264.7 cells, quantitative RT-PCR: MMP-9. As to conditions: RAW 264.7, 4 hours. On the procedure: as §4
The subject of another assay is IL-1 alpha mRNA. The assay is described as follows: Expression of inflammatory genes in stimulated RAW 264.7 cells, quantitative RT-PCR: IL-1 alpha. As to conditions: 25 μM/L Amorfrutin A; RAW 264.7, 4 hours. The procedure:
as §4

Broadly, the IC50 is the concentration needed to halve the response being measured. A higher IC50 goes with weaker potency. With `COc1cc(CCc2ccccc2)c(C(=O)O)c(O)c1CC=C(C)C` [Amorfrutin A (III), Amorfrutin A], the values for the IC50 in assay [1] and in assay [2] were 7.1 ± 0.1 µM and 74.1 ± 12.1 µM, respectively. Besides, the “% expression of iNOS mRNA relative to cells stimulated with LPS only (=100%)” value in assay [3] (25 μM/L Amorfrutin A) is recorded as 52%. For the same compound, the “Effect on iNOS gene expression (in words)” value in assay [3] (RT-PCR) is “significantly reduced”. Moreover, in assay [4] (25 μM/L Amorfrutin A), the “% expression of IL-10 mRNA relative to cells stimulated with LPS only (=100%)” value is 22%. For the same compound, the “Effect on IL-10 gene expression (in words)” value in assay [4] (RT-PCR) was “significantly reduced”. Moreover, the “% expression of MMP-9 mRNA relative to cells stimulated with LPS only (=100%)” value in assay [5] (25 μM/L Amorfrutin A) was determined as 69%. For the same compound, the “Effect on MMP-9 gene expression (in words)” value in assay [5] (RT-PCR) is “significantly reduced”. Further, in the assay on IL-1 alpha mRNA, the “% expression of IL-1 alpha mRNA relative to cells stimulated with LPS only (=100%)” value stood at 94%.

Take `CCCCCc1cc(OC)c(CC=C(C)C)c(O)c1C(=O)O` [2-hydroxy-4-methoxy-3-(3-methyl-2-butenyl)-6-pentyl-benzoic acid]: the IC50 in assay [1] (Mus musculus) is 10.9 ± 1.2 µM; in assay [2] (Mus musculus), over 50 µM.

Turning to `C=C(C)C(O)Cc1c(OC)cc(CCc2ccccc2)c(C(=O)O)c1O` (stereo not shown) [2-hydroxy-4-methoxy-3-(2-hydroxy-3-methyl-3-butenyl)-6-(2-phenylethyl)-benzoic acid], the concentration for half-maximal inhibition (IC50) in assay [1] (Mus musculus) stood at 14.6 ± 0.3 µM; in assay [2] (Mus musculus) it was 40.7 ± 11.8 µM.

For the compound `C=C(C)C(O)Cc1c(OC)cc(CCCCC)c(C(=O)O)c1O` (stereo not shown) [2-hydroxy-4-methoxy-3-(2-hydroxy-3-methyl-3-butenyl)-6-pentyl-benzoic acid], the half-inhibitory concentration (IC50) in assay [1] (Mus musculus) was 22.1 ± 1.6 µM; in assay [2] (Mus musculus), 18.9 ± 1.6 µM.

As for `CCCCCc1cc(OC)c(C/C=C(\C)CCC=C(C)C)c(O)c1C(=O)O` [Cannabigerolic acid monomethyl ether], the IC50 turned out to be 31.3 ± 2.5 µM in assay [1] and 17.9 ± 11.6 µM in assay [2].

Consider `COc1cc(CCc2ccccc2)c(C(=O)O)c(O)c1C/C=C(\C)CCC=C(C)C` [Amorfrutin B (II), Amorfrutin B], for which the IC50 in assay [1] is 22.8 ± 4.1 µM; in assay [2], over 100 µM.
